Measurements as given in US20230338270A1, “COSMETIC COMPOSITION FOR SKIN IMPROVEMENT COMPRISING, AS ACTIVE INGREDIENTS, POLYSACCHARIDES, YEAST EXTRACT, AND STRAIN FERMENTATION PRODUCT WITH CHARACTERISTICS OF PROBIOTICS” (LG HOUSEHOLD & HEALTH CARE LTD., priority 2020, published 2023).

Legend:
Type in all cases: cell-based
[1] = tested on: Staphylococcus epidermidis (S. epidermidis); assay: Effect on growth of beneficial bacteria (optical density after culture in TSB); conditions: for Effect on increase in beneficial bacteria (in words): Table 7; for Beneficial bacteria (S. epidermidis), average degree of increase or decrease compared to the untreated group: inoculated at a concentration of 1%, rotary culture 37° C. 16 hours
[2] = tested on: Staphylococcus aureus (S. aureus); assay: Effect on growth of harmful bacteria (optical density after culture in TSB); conditions: for Effect on reduction in harmful bacteria (in words): Table 7; for Harmful bacteria (S. aureus), average degree of increase or decrease compared to the untreated group: inoculated at a concentration of 1%, rotary culture 37° C. 16 hours
[3] = tested on: mouse Raw 264.7 cell line; assay: Suppression of inflammatory factor NO (Griess reagent, LPS-treated cells); conditions: 20 µg/mL, 1 µg/mL LPS, 24 hours, control group
Description: In order to identify the effect of the complexes of Preparation Examples on the production of NO as an inflammatory factor in cells, a mouse Raw 264.7 cell line was used, and a culture medium whose final pH was adjusted to 8.5 through addition of NaOH to Complete RPMI (RPMI:FBS:antibiotic = 10:1:0.1) was used as an initial culture medium.
When the Raw 264.7 cells appeared at the top of the culture medium after culture at 37° C. in the presence of 5% carbon dioxide for 24 hours, the cells were seeded in a 24-well plate in which a DMEM culture was prepared, followed by culture at 37° C. in the presence of 5% carbon dioxide for 24 hours. Thereafter, treatment was performed after diluting the complexes according to Preparation Examples 1 to 7 by the following concentrations while replacing the medium with a serum-free DMEM culture medium, followed by additional treatment of 1 µg/mL of LPS. After culture at 37° C. in the presence of 5% carbon dioxide for 24 hours, the supernatant was mixed with Griess reagent (Sigma-Aldrich) in a ratio of 1:1 to evaluate the ability to inhibit NO production with absorbance, and the average value was shown in Table 9 below.
NO production inhibition ability (%) = {1 - (NO production when compound is added / NO production in untreated group)} × 100
20 µg/mL of L-NMMA1 (N^G-Methyl-L-arginine acetate salt), an NO inhibitor, was used as a control group.

[4] = tested on: human dermal papilla cells; assay: Activity of dermal papilla cells (CCK-8, optical density at 450 nm); conditions: 1 µM, control group
Description: In order to identify the effect of the complexes of Preparation Examples on dermal papilla cells, human dermal papilla cells (Promocell, C-12071) in the 4-8 passage were used as a cell line, and follicle dermal papilla cell growth media (Promocell, C-26501) were used as an initial culture medium.
Cells were seeded at a level of 3,000 to 6,000 cells per well in a 96-well plate, and cultured in an incubator at 37° C. in the presence of 5% carbon dioxide for 24 hours. Thereafter, the culture medium was replaced with DMEM medium supplemented with 0.1% fetal bovine serum (FBS) and cultured in an incubator at 37° C. in the presence of 5% carbon dioxide for 24 hours. Thereafter, the culture medium was replaced with DMEM supplemented with 0.1% FBS treated with the complexes according to Preparation Examples 1 to 7 by each concentration, followed by culture in an incubator at 37° C. in the presence of 5% carbon dioxide for 48 hours. After treating 10 µl of CCK-8 solutions per well, culture was performed at 37° C. for 1 hour, and optical density was measured at 450 nm.
The difference between the optical density measurement value and the initial measurement value after 48 hours for each well was standardized by dividing the difference by the initial measurement value for evaluation, and the average value was shown in Table 8 below. 1 µM minoxidil was treated as a control group. […]

[5] = tested on: human skin fibroblasts; assay: Collagen biosynthesis rate (procollagen type I C-peptide EIA kit); conditions: 10 ng/mL, 48 hours, control group
Description: The effect of the complexes of Preparation Examples on the collagen biosynthesis rate in the human skin fibroblasts was identified. Skin fibroblasts were cultured in complete DMEM culture at 37° C. in the presence of 5% carbon dioxide for 72 hours. After seeding in a 24-well plate, culture was performed at 37° C. in the presence of 5% carbon dioxide for 24 hours. After treating the complexes according to Preparation Examples and culturing at 37° C. in the presence of 5% carbon dioxide for 48 hours, only the supernatant was separated, and the collagen synthesis effect was observed by absorbance using a procollagen type I C-peptide (PIP) EIA kit.
Collagen biosynthesis increase rate (%) = {(Absorbance of complex treated group -Absorbance of untreated group) / Absorbance of untreated group} × 100
10 ng/mL of TGF-β, a cytokine, was used as a control group.

Compound	Effect on increase in beneficial bacteria (in words) [1]	Beneficial bacteria (S. epidermidis), average degree of increase or decrease compared to the untreated group [1] [%]	Effect on reduction in harmful bacteria (in words) [2]	Harmful bacteria (S. aureus), average degree of increase or decrease compared to the untreated group [2] [%]	NO production inhibition ability, Average [3] [%]	Dermal papilla cell activity, Average (optical density difference after 48 hours divided by initial value) [4]	Collagen biosynthesis increase rate, Average [5] [%]
Inulin	no significant effect	0.29	no significant effect	-0.84	–	–	–
CC(=O)O.CNC(=N)NCCC[C@H](N)C(=O)O [L-NMMA1, N^G-Methyl-L-arginine acetate salt]	–	–	–	–	52.1	–	–
Nc1cc(N2CCCCC2)nc(N)[n+]1[O-] [Minoxidil, minoxidil]	–	–	–	–	–	44.2	–
TGF-β	–	–	–	–	–	–	36.6
Maltodextrin	no significant effect	0.14	no significant effect	1.43	–	–	–
Beta-glucan	no significant effect	-0.26	no significant effect	-0.78	–	–	–
